One data set relates to two-spotted spider mites. Briefly: Test Example 1: acaricidal activity, dipping of kidneybean leaves infested with two-spotted spider mites. The data set is classed as in vivo. The conditions noted are these: for activity at 1.25 ppm: 1.25 p.p.m.; for activity at 2.5 ppm: 2.5 p.p.m.; for activity at 5 ppm / activity at 10 ppm / activity at 20 ppm: read-out: acaricidal activity (%); for activity at 0.04 ppm: 0.04 p.p.m.; for activity at 0.08 ppm: 0.08 p.p.m.; for activity at 0.16 ppm: 0.16 p.p.m.; for activity at 0.31 ppm: 0.31 p.p.m.; for activity at 0.63 ppm: 0.63 p.p.m.

A further data set is described as follows: Solubility in solvents. The data set is classed as physicochemical. The following applies: "do." = same as A1.
Data set [1] can be described thus: Alcohol solution, neutralization titration method (pKa). The data set is classed as physicochemical. The source says:
|Alcohol solution, |neutralization pH ranging |titration method

A further data set has as its system European red mites. In words: Test Example 2: spraying of apple leaves infested with European red mites. The data set is classed as in vivo. The conditions noted are these: 5 days after spraying, non-treated 88/102. How it is done: An emulsifiable concentrate containing 20% of a of a crude B-41, which had been obtained by purifying two times according to alumina column chromatography the brown oily substance prepared in Example 1, was diluted to a given concentration to prepare a chemical solution. This chemical solution was sprayed to apple leaves infested with about 100 European red mites and, 5 days thereafter, the number of living mites was counted.

The test system of the next data set is citrus red mites. Briefly: Test Example 3: acaricidal activity, spraying of orange leaves infested with citrus red mites. The format is in vivo. The following applies: after 24 hours. How it is done:
This chemical solution was sprayed to orange leaves infested with citrus red mites, and the acaricidal activity (%) after 24 hours was calculated.

The next data set relates to rice stem borer. In words: Test Example 5: mortality of rice stem borer larvae in rice plants. The format is in vivo, rice stem borer of 1st generation. The following applies: 120 h, read-out: mortality (%) of the larvae. How it is done:
Eggs of rice stem borer of 1st generation were inoculated to rice plants (variety "Kinmaze"), which had been planted in 200 cm^2 pots, and were hatched to allow the larvae invade the stems. Subsequently, a wettable powder containing 40% of a crude B-41, which had been obtained by purifying two times according to alumina column chromatography the brown oily substance prepared in Example 1, was diluted to a given concentration and then sprayed to the plants in a proportion of 100 cc. per pot. 5 Days thereafter, the stems were split to examine the alive and dead of the larvae, and the mortality (%) of the larvae was calculated.

Read-outs that look alike come from different tables or passages of the source.

Regarding `COC1CC2(O)C(CO)=CC=CC(C)CC(C)=CCC3CC(CC4(CCC(C)C(C)O4)O3)OC(=O)C2C=C1C` (stereo not drawn) [A1], in the data set on two-spotted spider mites (after 24 hours), the activity at 1.25 ppm came out at 0% and the activity at 2.5 ppm stood at 19.9%. The activity at 5 ppm in the data set on two-spotted spider mites (5 p.p.m., after 24 hours) amounted to 100%. For the same compound, the activity at 10 ppm in the data set on two-spotted spider mites (10 p.p.m., after 24 hours) was found to be 100%. Also, the activity at 20 ppm in the data set on two-spotted spider mites (20 p.p.m., after 24 hours) is 100%. Further, the “Solubility in organic solvents ("easily soluble in n-hexane, benzene, acetone, ethanol and chloroform")” value in “Solubility in solvents” (n-hexane, benzene, acetone, ethanol and chloroform) is recorded as “easily”. Further, in the data set “Solubility in solvents” (water), the “Solubility in water ("Difficultly soluble in water")” value was “Difficultly”. Also, the “pKa (No pKa at pH ranging from 2 to 12)” value in data set [1] is listed as “No pKa”.
In the data set on two-spotted spider mites (after 24 hours), `CC1=CCC2CC(CC3(CCC(C)C(C)O3)O2)OC(=O)C2C=C(C)C(O)C3OCC(=CC=CC(C)C1)C23O` (stereo not drawn) [A3] returned an activity at 0.04 ppm of 15.2%, an activity at 0.08 ppm of 100%, an activity at 0.16 ppm of 98.2% and an activity at 0.31 ppm of 100%. In the data set with two-spotted spider mites (after 24 hours), this compound displayed an activity at 0.63 ppm of 100%, an activity at 1.25 ppm of 100% and an activity at 2.5 ppm of 100%. The activity at 5 ppm in the data set on two-spotted spider mites (5 p.p.m., after 24 hours) was 100%. The activity at 10 ppm in the data set on two-spotted spider mites (10 p.p.m., after 24 hours) is 100%. The activity at 20 ppm in the data set with two-spotted spider mites (20 p.p.m., after 24 hours) worked out at 100%. For the same compound, the “pKa (No pKa at pH ranging from 2 to 12)” value in data set [1] was “do”.
For `CCC1OC2(CCC1C)CC1CC(CC=C(C)CC(C)C=CC=C3COC4C(O)C(C)=CC(C(=O)O1)C34O)O2` (stereo not drawn) [A4], in the data set on two-spotted spider mites (after 24 hours), the activity at 0.04 ppm was found to be 21.3%, the activity at 0.08 ppm turned out to be 100%, the activity at 0.16 ppm is 100% and the activity at 0.31 ppm was 100%. In the data set with two-spotted spider mites (after 24 hours), the activity at 0.63 ppm came to 100%, the activity at 1.25 ppm amounted to 100% and the activity at 2.5 ppm was determined as 100%. Further, the activity at 5 ppm in the data set with two-spotted spider mites (5 p.p.m., after 24 hours) is 100%. Moreover, in the data set with two-spotted spider mites (10 p.p.m., after 24 hours), the activity at 10 ppm came to 100%. Moreover, the activity at 20 ppm with two-spotted spider mites (20 p.p.m., after 24 hours) stood at 100%.
In the data set with two-spotted spider mites (after 24 hours), `COC1C(C)=CC2C(=O)OC3CC(CC=C(C)CC(C)C=CC=C4COC1C42O)OC1(CCC(C)C(C)O1)C3` (stereo not drawn) [B2] showed an activity at 0.08 ppm of 0%, an activity at 0.16 ppm of 16.6%, an activity at 0.31 ppm of 80.5% and an activity at 0.63 ppm of 100%. In the data set with two-spotted spider mites (after 24 hours), this compound came in with an activity at 1.25 ppm of 100% and an activity at 2.5 ppm of 100%. The activity at 5 ppm with two-spotted spider mites (5 p.p.m., after 24 hours) worked out at 100%. In addition, the activity at 10 ppm with two-spotted spider mites (10 p.p.m., after 24 hours) is 100%. In addition, the activity at 20 ppm in the data set on two-spotted spider mites (20 p.p.m., after 24 hours) turned out to be 100%. Also, the “pH at which crystallization took place in the titration” value in data set [1] (alcohol solution, neutralization titration) is listed as about 8.7.
In the data set on two-spotted spider mites (after 24 hours), `CCC1OC2(CCC1C)CC1CC(CC=C(C)CC(C)C=CC=C3COC4C(OC)C(C)=CC(C(=O)O1)C34O)O2` (stereo not drawn) [B3] registered an activity at 0.04 ppm of 0%, an activity at 0.08 ppm of 18.3%, an activity at 0.16 ppm of 74.1% and an activity at 0.31 ppm of 100%. In the data set with two-spotted spider mites (after 24 hours), the activity at 0.63 ppm was found to be 100%, the activity at 1.25 ppm came to 100% and the activity at 2.5 ppm is 100%. The activity at 5 ppm in the data set on two-spotted spider mites (5 p.p.m., after 24 hours) was determined as 100%. The activity at 10 ppm in the data set on two-spotted spider mites (10 p.p.m., after 24 hours) came to 100%. Besides, the activity at 20 ppm in the data set with two-spotted spider mites (20 p.p.m., after 24 hours) stood at 100%.
Turning to `CC1=CCC2CC(CC3(CCC(C)C(C)O3)O2)OC(=O)C2C=C(COC(=O)c3ccc[nH]3)C(O)C3OCC(=CC=CC(C)C1)C23O` (stereo not drawn) [C1], in the data set with two-spotted spider mites (after 24 hours), the activity at 0.04 ppm was 51.8%, the activity at 0.08 ppm is 100%, the activity at 0.16 ppm was determined as 100% and the activity at 0.31 ppm was determined as 100%. Besides, in the data set with two-spotted spider mites (after 24 hours), the activity at 0.63 ppm was found to be 100%, the activity at 1.25 ppm came to 100% and the activity at 2.5 ppm came out at 100%. Besides, in the data set on two-spotted spider mites (5 p.p.m., after 24 hours), the activity at 5 ppm is 100%. In addition, in the data set on two-spotted spider mites (10 p.p.m., after 24 hours), the activity at 10 ppm amounted to 100%. Moreover, in the data set with two-spotted spider mites (20 p.p.m., after 24 hours), the activity at 20 ppm came to 100%. In data set [1], the “pKa (No pKa at pH ranging from 2 to 12)” value is “No pKa”.
In the data set with two-spotted spider mites (after 24 hours), `CCC1OC2(CCC1C)CC1CC(CC=C(C)CC(C)C=CC=C3COC4C(O)C(COC(=O)c5ccc[nH]5)=CC(C(=O)O1)C34O)O2` (stereo not drawn) [C2] returned an activity at 0.04 ppm of 97.3%, an activity at 0.08 ppm of 100%, an activity at 0.16 ppm of 100% and an activity at 0.31 ppm of 100%. In the data set on two-spotted spider mites (after 24 hours), this compound registered an activity at 0.63 ppm of 100%, an activity at 1.25 ppm of 100% and an activity at 2.5 ppm of 100%. Further, the activity at 5 ppm with two-spotted spider mites (5 p.p.m., after 24 hours) came to 100%. In the data set with two-spotted spider mites (10 p.p.m., after 24 hours), the activity at 10 ppm came out at 100%. Further, the activity at 20 ppm in the data set with two-spotted spider mites (20 p.p.m., after 24 hours) is 100%. In data set [1], the “pKa (No pKa at pH ranging from 2 to 12)” value is recorded as “do”.
On to `OC(c1ccc(Cl)cc1)(c1ccc(Cl)cc1)C(Cl)(Cl)Cl` [Kelthane, 1,1-Bis-(p-chlorophenyl)-2,2,2-trichloroethanol], for which the activity at 5 ppm with two-spotted spider mites (24 h) was determined as 0%. For the same compound, the activity at 10 ppm with two-spotted spider mites (24 h) amounted to 56.4%. For the same compound, the values for the activity at 20 ppm in the data set on two-spotted spider mites (24 h) and in the data set on citrus red mites (20 p.p.m.) were 100% and 90.9%, respectively. Further, the entries for the “number of mites living at counting / before spraying (given as fraction)” value with European red mites (50 p.m.m. [sic]), in the data set on European red mites (100 p.p.m.) and in the data set with European red mites (200 p.p.m.) were 56/128, 8/103 and 0/97, respectively. Also, in the data set on citrus red mites (7 p.p.m.), the activity at 7 ppm came out at 30.8%.
Turning to `COP(=O)(OC)OC=C(Cl)Cl` [Reference **], in the data set on rice stem borer, the mortality at 50 ppm was determined as 25.5% and the mortality at 100 ppm worked out at 82.1%.

The mortality is the percentage killed.

Values taken from US3950360A, “Antibiotic substances” (priority 1972, dated 1976).
